The target of data set [1] is Glucocorticoid receptor (Homo sapiens) (UniProt P04150). The data set is described as follows: Binding affinity to human GR at 10 uM after 360 mins by scintillation counting analysis relative to control.
Data set [2] deals with Voltage-gated potassium channel. The data set is described as follows: Binding affinity to voltage-gated potassium channel (unknown origin) at 10 uM relative to control. Conditions: human. Format: protein assay.
For the next data set, the system named is Salmonella typhimurium. Kind of data set: Mutagenicity in Salmonella typhimurium TA98 in absence of rat liver S9 fraction by Ames test. The data set is classed as toxicity, organism-based. Conditions: salmonella enterica subsp. enterica serovar typhimurium.
The species entered for data set [3] is Homo sapiens. The data set is described as follows: Binding affinity to sodium channel (unknown origin) at 10 uM relative to control.
Another data set addresses L-type calcium channel (Homo sapiens, UniProt O60840+Q01668+Q13698+Q13936). Kind of data set: Binding affinity to L-type calcium channel (unknown origin) at 10 uM relative to control. The data set is classed as protein assay. Conditions: read-out: Activity.
Data set [4] is filed under the species Homo sapiens. Kind of data set: Binding affinity to human sigma receptor at 10 uM after 120 mins by scintillation counting analysis relative to control.
The target in data set [5] is Angiotensin-converting enzyme (Homo sapiens) (UniProt P12821). The data set is described as follows: Binding affinity to ACE (unknown origin) at 10 uM relative to control.
Chain of Angiotensin-converting enzyme (Homo sapiens) (P12821 whole entry): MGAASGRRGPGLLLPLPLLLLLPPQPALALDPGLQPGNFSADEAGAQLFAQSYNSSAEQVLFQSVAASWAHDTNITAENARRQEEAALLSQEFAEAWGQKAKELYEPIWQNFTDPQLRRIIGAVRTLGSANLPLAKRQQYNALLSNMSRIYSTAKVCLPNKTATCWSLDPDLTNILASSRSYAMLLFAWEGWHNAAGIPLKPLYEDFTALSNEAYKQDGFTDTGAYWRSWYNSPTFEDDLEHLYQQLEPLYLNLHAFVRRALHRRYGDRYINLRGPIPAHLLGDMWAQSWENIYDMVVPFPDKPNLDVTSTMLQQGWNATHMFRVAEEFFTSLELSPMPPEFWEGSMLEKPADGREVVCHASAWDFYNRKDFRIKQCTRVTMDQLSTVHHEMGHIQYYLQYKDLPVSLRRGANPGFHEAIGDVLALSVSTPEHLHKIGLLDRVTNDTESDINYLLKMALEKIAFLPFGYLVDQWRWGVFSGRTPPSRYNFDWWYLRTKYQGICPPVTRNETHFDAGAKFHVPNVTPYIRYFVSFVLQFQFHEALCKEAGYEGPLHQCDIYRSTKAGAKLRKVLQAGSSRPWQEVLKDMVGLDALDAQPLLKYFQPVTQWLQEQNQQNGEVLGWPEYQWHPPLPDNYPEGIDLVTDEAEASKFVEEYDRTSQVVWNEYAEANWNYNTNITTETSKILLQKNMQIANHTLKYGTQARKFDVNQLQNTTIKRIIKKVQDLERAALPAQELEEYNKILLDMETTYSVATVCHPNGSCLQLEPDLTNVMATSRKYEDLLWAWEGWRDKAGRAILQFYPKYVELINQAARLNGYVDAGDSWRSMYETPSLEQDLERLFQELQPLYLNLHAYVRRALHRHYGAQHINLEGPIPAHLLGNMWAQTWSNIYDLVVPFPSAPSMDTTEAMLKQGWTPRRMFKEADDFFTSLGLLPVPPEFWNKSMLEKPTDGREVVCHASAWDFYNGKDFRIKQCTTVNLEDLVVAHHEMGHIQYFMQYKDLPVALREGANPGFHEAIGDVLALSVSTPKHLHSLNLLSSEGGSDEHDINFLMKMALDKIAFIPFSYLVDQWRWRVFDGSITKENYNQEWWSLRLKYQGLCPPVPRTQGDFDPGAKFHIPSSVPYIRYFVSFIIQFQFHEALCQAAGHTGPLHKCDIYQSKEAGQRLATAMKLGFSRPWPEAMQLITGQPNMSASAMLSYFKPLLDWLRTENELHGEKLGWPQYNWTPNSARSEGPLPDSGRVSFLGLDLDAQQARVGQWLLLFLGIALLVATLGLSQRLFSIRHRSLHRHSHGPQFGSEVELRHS
Another data set relates to COS-7. Kind of data set: Cytotoxicity against African green monkey COS7 cells assessed as cell death after 2 days by MTT assay. The data set is classed as cell-based. Particulars: chlorocebus aethiops, cos-7, 48 h.
Data set [6] concerns the target Nociceptin receptor (Homo sapiens) (UniProt P41146). The data set is described as follows: Binding affinity to recombinant human NOP receptor at 10 uM after 60 mins by scintillation counting analysis relative to control.
Data set [7] has as its target Galanin receptor type 1 (Homo sapiens) (UniProt P47211). The data set is described as follows: Binding affinity to recombinant human GAL1 receptor at 10 uM after 120 mins by scintillation counting analysis relative to control.
Data set [8] addresses Histone deacetylase 4 (Homo sapiens) (UniProt P56524). The data set is described as follows: Binding affinity to recombinant human HDAC4 at 10 uM after 30 mins by fluorescence analysis relative to control.
Data set [9] deals with Vasopressin V1a receptor (Homo sapiens) (UniProt P37288). The data set is described as follows: Binding affinity to recombinant human V1A receptor at 10 uM after 60 mins by scintillation counting analysis relative to control.
Data set [10] addresses Substance-P receptor (Homo sapiens) (UniProt P25103). Kind of data set: Binding affinity to human NK1 receptor at 10 uM after 30 mins by scintillation counting analysis relative to control.
Data set [11] deals with Cathepsin D (Homo sapiens) (UniProt P07339). The data set is described as follows: Binding affinity to human cathepsin D at 10 uM after 30 mins by fluorescence assay relative to control.
Data set [12] concerns the target Histamine H1 receptor (Homo sapiens) (UniProt P35367). Kind of data set: Binding affinity to recombinant human histamine H1 receptor at 10 uM after 60 mins by scintillation counting analysis relative to control.
In data set [13] the target is Type-1 angiotensin II receptor (Homo sapiens) (UniProt P30556). The data set is described as follows: Binding affinity to recombinant human AT1 receptor at 10 uM after 120 mins by scintillation counting analysis relative to control.
The target of data set [14] is Muscarinic acetylcholine receptor M4 (Homo sapiens) (UniProt P08173). The data set is described as follows: Binding affinity to recombinant human muscarinic M4 receptor at 10 uM after 60 mins by scintillation counting analysis relative to control.
Chain of Muscarinic acetylcholine receptor M4 (Homo sapiens) (P08173 whole entry): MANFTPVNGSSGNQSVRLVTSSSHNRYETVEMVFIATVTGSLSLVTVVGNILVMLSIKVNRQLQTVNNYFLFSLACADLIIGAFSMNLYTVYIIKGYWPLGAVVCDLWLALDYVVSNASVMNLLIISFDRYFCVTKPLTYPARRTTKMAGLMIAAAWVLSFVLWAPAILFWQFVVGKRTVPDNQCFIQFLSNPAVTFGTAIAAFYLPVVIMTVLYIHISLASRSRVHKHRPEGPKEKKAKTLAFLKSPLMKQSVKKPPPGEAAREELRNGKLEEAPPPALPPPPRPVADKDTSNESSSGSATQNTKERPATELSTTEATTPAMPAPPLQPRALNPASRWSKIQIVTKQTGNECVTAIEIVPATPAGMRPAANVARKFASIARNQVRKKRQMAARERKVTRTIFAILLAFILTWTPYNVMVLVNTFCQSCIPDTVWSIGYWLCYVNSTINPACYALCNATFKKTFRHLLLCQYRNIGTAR
The test system of the next data set is CHO-K1. The data set is described as follows: Genotoxicity in CHOK1 cells in absence of rat liver S9 fraction by fluorescence imaging based micronucleus assay. The data set is classed as toxicity, cell-based, Cricetulus griseus. Conditions: chinese hamster.
Data set [15] addresses Calcitonin gene-related peptide type 1 receptor (Homo sapiens) (UniProt Q16602). The data set is described as follows: Binding affinity to recombinant human CGRP at 10 uM after 90 mins by scintillation counting analysis relative to control.
The target in data set [16] is Endothelin-1 receptor (Homo sapiens) (UniProt P25101). Kind of data set: Binding affinity to recombinant human ETA receptor at 10 uM after 120 mins by scintillation counting analysis relative to control.
Chain of Endothelin-1 receptor (Homo sapiens) (P25101 whole entry): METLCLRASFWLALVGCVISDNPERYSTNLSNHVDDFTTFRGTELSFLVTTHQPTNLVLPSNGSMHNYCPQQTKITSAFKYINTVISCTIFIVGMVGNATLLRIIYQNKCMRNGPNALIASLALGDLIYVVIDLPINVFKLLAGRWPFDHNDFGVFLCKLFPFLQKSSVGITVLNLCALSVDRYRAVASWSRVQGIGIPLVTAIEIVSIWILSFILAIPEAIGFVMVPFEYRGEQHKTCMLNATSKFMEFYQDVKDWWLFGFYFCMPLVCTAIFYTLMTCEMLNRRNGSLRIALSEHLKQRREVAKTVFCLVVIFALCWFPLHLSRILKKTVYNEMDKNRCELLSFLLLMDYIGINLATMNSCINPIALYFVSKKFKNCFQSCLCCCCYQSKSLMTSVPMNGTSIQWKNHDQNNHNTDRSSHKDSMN

Some results are limits rather than exact numbers.

Chain of Nociceptin receptor (Homo sapiens) (P41146 whole entry): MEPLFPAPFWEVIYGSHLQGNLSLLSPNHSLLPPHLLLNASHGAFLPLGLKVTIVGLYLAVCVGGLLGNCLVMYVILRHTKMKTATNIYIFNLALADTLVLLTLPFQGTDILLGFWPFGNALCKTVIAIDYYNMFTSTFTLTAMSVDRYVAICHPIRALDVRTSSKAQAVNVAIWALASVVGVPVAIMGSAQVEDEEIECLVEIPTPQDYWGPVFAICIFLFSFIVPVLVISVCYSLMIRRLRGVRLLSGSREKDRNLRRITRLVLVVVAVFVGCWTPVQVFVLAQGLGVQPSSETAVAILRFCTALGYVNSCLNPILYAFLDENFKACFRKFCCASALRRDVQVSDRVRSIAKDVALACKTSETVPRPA
Chain of Glucocorticoid receptor (Homo sapiens) (P04150 whole entry): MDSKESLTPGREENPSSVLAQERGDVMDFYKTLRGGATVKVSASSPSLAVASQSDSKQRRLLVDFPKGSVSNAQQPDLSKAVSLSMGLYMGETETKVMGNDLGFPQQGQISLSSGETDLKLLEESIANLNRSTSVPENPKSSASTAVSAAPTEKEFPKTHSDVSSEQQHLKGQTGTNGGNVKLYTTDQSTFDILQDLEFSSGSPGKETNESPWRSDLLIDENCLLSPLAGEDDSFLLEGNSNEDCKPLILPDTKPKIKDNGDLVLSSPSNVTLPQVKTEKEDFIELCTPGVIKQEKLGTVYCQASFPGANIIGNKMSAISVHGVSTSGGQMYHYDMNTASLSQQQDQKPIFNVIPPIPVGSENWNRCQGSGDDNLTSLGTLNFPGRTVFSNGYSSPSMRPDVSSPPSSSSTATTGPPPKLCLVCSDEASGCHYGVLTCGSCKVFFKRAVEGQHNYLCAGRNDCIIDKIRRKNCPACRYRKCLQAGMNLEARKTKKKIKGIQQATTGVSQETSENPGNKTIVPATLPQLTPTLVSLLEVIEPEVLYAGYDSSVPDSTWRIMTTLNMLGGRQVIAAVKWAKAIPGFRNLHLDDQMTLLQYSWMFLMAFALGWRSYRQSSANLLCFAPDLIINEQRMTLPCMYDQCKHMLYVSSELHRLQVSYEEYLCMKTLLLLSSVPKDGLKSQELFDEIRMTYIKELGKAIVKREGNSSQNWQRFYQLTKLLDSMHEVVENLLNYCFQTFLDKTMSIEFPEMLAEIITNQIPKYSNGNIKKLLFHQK
Chain of Substance-P receptor (Homo sapiens) (P25103 whole entry): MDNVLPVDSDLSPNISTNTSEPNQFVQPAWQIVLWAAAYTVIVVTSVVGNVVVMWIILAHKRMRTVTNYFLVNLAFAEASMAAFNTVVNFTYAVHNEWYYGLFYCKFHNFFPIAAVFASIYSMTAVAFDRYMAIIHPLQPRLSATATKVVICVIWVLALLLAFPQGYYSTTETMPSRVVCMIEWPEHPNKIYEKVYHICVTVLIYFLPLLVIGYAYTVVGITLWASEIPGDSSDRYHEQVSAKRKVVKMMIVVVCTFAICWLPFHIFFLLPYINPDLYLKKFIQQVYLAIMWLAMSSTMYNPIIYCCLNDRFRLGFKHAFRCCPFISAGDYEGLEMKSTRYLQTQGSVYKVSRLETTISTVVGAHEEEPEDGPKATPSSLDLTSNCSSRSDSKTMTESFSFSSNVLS
Chain of Histamine H1 receptor (Homo sapiens) (P35367 whole entry): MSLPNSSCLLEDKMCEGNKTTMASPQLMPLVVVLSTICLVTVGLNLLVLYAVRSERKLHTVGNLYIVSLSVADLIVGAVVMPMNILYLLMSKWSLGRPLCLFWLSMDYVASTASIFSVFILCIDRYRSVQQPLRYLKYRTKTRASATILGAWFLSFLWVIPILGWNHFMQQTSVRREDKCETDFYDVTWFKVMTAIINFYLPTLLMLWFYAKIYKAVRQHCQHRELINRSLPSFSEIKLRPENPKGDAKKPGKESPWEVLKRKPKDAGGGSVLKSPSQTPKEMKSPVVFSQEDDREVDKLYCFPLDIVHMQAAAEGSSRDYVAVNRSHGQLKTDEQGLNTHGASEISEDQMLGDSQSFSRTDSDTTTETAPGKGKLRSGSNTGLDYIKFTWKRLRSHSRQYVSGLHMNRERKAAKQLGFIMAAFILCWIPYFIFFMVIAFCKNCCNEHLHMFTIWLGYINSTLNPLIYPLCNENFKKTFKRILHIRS
Chain of Calcitonin gene-related peptide type 1 receptor (Homo sapiens) (Q16602 whole entry): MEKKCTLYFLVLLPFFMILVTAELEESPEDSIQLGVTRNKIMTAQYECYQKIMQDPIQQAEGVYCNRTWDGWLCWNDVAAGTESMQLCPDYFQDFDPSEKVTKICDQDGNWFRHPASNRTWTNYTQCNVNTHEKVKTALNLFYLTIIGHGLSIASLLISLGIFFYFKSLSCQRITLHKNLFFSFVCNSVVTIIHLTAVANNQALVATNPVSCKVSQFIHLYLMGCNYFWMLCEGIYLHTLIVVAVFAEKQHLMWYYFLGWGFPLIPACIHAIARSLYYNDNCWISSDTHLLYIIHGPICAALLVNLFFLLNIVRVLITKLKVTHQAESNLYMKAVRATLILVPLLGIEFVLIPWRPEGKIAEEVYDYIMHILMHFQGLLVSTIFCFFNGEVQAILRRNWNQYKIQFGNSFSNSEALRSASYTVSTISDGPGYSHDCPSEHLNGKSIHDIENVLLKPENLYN

As for `CCOc1c(Cl)cc(C(=O)Nc2ccc(C(=O)O)c(C)c2)cc1OC(C)C`, the Activity in data set [1] was below 25%; in [2], “<= 25%”; in the data set on Salmonella typhimurium it was “Non-Toxic”; in the data set filed under Homo sapiens [3] it was below 25%; in the data set filed under Homo sapiens [4], below 25%; in data set [5] it was below 25%. For the same compound, the Activity entry in the data set on COS-7 was “Non-Toxic”; in [6], below 25%; in data set [7] it was below 25%; in data set [8] it was below 25%; in [9], below 25%; in data set [10], below 25%. Also, the Activity in data set [11] was below 25%; in data set [12], below 25%; in [13], below 25%; in [14] it was below 25%; in the data set on CHO-K1, “Non-Toxic”; in [15], below 25%. In addition, in data set [16], the Activity was below 25%. The activity at 10 µM at L-type calcium channel is at most 25%.

The values are drawn from ChEMBL document CHEMBL4184197 (Bioorg Med Chem, 2018).
